# Data taken from US20250241313A1, “APPLICATION OF ACTIVE SUBSTANCE IN IMPROVING SEED VIGOR AND METHOD FOR IMPROVING SEED VIGOR” (HUNAN HYBRID RICE RESEARCH CENTER, priority 2024, published 2025).
# Tests used:
# Format in all cases: in vivo
# rice seeds = assay: Rice seed germination (seed vigor) after seed soaking
# Procedure: (§1) In the following examples, the relative activity index is calculated by the following formula: • (1) average germination rate: ×100% (total number of germinated seeds/total number of tested seeds within 7 days); • (2) average germination potential: ×100% (total number of germinated seeds/total number of tested seeds in the first 5 days); • (3) average germination index: Σ(number of sprouts per day/[…]); • (4) statistical P-value: generally, X represents the statistical quantity of the test, and when H0 is true, the value C of the statistical quantity can be calculated from the sample data, and the P value can be obtained from the specific distribution of the test statistical quantity X. Specifically, the P value of the left test is the probability that the test statistic X is smaller than the sample statistic C, i.e.: P=P {X<C} the P value for the right-side test is the probability that the test statistic X is greater than the sample statistic C: P=P {X>C} the P value of the two-sided test is 2 times the probability that the test statistic X falls within the tail region where the sample statistic C is an endpoint: P=2P {X>C} (when C is located at the right end of the distribution curve) or P=2P {X<C} (when C is located at the left end of the distribution curve) if X obeys a normal distribution and a t-distribution, the distribution curve is symmetric about the vertical axis, so its P value can be represented as P=P {|X|>C}; • after the P-value has been calculated, a test can be concluded by comparing a given significance level a to the P-value: rejecting the original hypothesis if a>P value; if a≤P value, the original assumption is accepted at significance level a. […]
# wheat seeds = assay: Wheat seed germination (seed vigor) after seed soaking; settings: for Average germination index / average germination potential / Average germination rate: wheat seeds soaked 24 hours in 0.3 mM aqueous solution; for average germination potential: first 5 days; for Average germination rate: within 7 days
# Procedure: as §1
# corn seeds = assay: Corn seed germination (seed vigor) after seed soaking; settings: for Average germination index / average germination potential / Average germination rate: corn seeds soaked 24 hours in 0.3 mM aqueous solution; for average germination potential: first 5 days; for Average germination rate: within 7 days
# Procedure: as §1
# tomato seeds = assay: Tomato seed germination (seed vigor) after seed soaking; settings: for Average germination index / average germination potential / Average germination rate: tomato seeds soaked 24 hours in 0.3 mM aqueous solution; for average germination potential: first 5 days; for Average germination rate: within 7 days
# Procedure: as §1
# tobacco seeds = assay: Tobacco seed germination (seed vigor) after seed soaking; settings: for Average germination index / average germination potential / Average germination rate: tobacco seeds soaked 24 hours in 0.3 mM aqueous solution; for average germination potential: first 5 days; for Average germination rate: within 7 days
# Procedure: as §1
# [1] = rice seeds soaked 24 hours in 0.3 mM aqueous solution
# [2] = rice seeds soaked 24 hours in 0.3 mM aqueous solution, germinated in the first 5 days
# [3] = rice seeds soaked 24 hours in 0.3 mM aqueous solution, germinated within 7 days, 3 parallel groups
SMILES,Average germination index (rice seeds; [1]),average germination potential (rice seeds; [2]),Average germination rate (rice seeds; [3]),Average germination index (wheat seeds),average germination potential (wheat seeds),Average germination rate (wheat seeds),Average germination index (corn seeds),average germination potential (corn seeds),Average germination rate (corn seeds),Average germination index (tomato seeds),average germination potential (tomato seeds),Average germination rate (tomato seeds),Average germination index (tobacco seeds),average germination potential (tobacco seeds),Average germination rate (tobacco seeds),further results
"C=C(OP(=O)([O-])O)C(=O)O.[K+] [PEP-K salt, potassium phosphoenolpyruvate]",10.76,64%,68%,6.333,21%,22%,14.5 ^,70%,68%,10.73,64%,65%,11.83,64%,66%,"Average germination index (rice seeds; rice seeds, 0.5 mM aqueous solution): 10.76; average germination potential (rice seeds; rice seeds, 0.5 mM aqueous solution, first 5 days): 64%; Average germination rate (rice seeds; rice seeds, 0.5 mM aqueous solution, within 7 days): 68%"
"C=C(OP(=O)(O)O)C(=O)O.NC1CCCCC1 [PEP-cyclohexylammonium salt, cyclohexylammonium phosphoenolpyruvate]",10.82,66%,70%,5.067,19%,21%,10.25 ^,60%,58%,10.23,65%,66%,10.53,65%,68%,"Average germination index (rice seeds; rice seeds, 1.1 mM aqueous solution): 9.82; average germination potential (rice seeds; rice seeds, 1.1 mM aqueous solution, first 5 days): 64%; Average germination rate (rice seeds; rice seeds, 1.1 mM aqueous solution, within 7 days): 62%"
"C=C(OP(=O)(O)O)C(=O)O [PEP, phosphoenolpyruvate]",11.04,66%,72%,6.367,24%,24%,14.2 ^,70%,68%,9.783,59%,60%,12.78,64%,70%,"Average germination index (rice seeds; rice seeds, 0.09 mM aqueous solution): 8.43; average germination potential (rice seeds; rice seeds, 0.09 mM aqueous solution, first 5 days): 61%; Average germination rate (rice seeds; rice seeds, 0.09 mM aqueous solution, within 7 days): 63%; Average germination index (rice seeds; rice seeds, 0.2 mM aqueous solution): 11.04; average germination potential (rice seeds; rice seeds, 0.2 mM aqueous solution, first 5 days): 66%; Average germination rate (rice seeds; rice seeds, 0.2 mM aqueous solution, within 7 days): 72%; germination condition and root system / leaf growth versus water control (FIG. 1-3) (rice seeds; rice seeds, 0.3 mM, day 4 and day 7): significantly accelerate the growth of the root system and leaf of rice seeds; germination condition and root growth versus water control (FIG. 4-5) (wheat seeds; wheat seeds, 0.3 mM, day 7): the root growth of the wheat seeds can be accelerated; germination condition and root growth versus water control (FIG. 6-7) (corn seeds; corn seeds, 0.3 mM, day 7): the root growth of the corn seeds can be accelerated; germination condition and root system growth versus water control (FIG. 8) (tomato seeds; tomato seeds, 0.3 mM, day 7): the root system growth of the tomato seeds can be accelerated; germination condition and root system growth versus water control (FIG. 9) (tobacco seeds; tobacco seeds, 0.3 mM, day 7): the root system growth of the tobacco seeds can be accelerated"
